Key:
[1] = target: T1, Gastrin/cholecystokinin type B receptor (Mus musculus, UniProt P56481); test: Inhibitory activity against Cholecystokinin type B receptor
T1 sequence (P56481 whole entry): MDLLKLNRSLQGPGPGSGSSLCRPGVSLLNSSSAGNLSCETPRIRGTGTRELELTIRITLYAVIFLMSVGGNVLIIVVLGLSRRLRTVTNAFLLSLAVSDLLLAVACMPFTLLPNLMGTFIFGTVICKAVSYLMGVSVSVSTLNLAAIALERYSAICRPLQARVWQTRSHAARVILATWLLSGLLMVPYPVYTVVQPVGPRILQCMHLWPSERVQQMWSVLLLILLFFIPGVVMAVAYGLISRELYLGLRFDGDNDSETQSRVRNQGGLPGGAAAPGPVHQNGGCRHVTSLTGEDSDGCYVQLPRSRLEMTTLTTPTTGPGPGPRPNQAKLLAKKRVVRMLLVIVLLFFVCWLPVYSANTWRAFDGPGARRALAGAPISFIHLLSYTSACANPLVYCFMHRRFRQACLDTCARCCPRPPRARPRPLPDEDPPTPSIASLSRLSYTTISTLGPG

[2] = target: T2, Cholecystokinin receptor type A (Mus musculus, UniProt O08786); test: Inhibitory activity against Cholecystokinin type A receptor
T2 sequence (O08786 whole entry): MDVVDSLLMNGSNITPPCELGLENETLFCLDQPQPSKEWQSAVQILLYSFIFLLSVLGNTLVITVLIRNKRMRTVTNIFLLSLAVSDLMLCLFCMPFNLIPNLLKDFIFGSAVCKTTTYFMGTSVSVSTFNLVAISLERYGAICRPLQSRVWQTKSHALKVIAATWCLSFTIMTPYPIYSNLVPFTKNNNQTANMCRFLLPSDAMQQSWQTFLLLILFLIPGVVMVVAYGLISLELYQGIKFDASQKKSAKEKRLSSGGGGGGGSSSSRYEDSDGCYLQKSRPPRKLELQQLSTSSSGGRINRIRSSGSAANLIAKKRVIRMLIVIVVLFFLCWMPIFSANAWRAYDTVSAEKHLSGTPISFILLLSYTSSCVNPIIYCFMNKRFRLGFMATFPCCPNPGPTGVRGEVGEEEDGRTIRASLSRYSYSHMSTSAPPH

Histamine H2 receptor = Histamine H2 receptor (Rattus norvegicus, UniProt P25102); test: Antagonistic activity by inhibition histamine H2 receptor from rats.; format: functional; settings: read-out: pA2 (converted)
Chain of Histamine H2 receptor (P25102 whole entry): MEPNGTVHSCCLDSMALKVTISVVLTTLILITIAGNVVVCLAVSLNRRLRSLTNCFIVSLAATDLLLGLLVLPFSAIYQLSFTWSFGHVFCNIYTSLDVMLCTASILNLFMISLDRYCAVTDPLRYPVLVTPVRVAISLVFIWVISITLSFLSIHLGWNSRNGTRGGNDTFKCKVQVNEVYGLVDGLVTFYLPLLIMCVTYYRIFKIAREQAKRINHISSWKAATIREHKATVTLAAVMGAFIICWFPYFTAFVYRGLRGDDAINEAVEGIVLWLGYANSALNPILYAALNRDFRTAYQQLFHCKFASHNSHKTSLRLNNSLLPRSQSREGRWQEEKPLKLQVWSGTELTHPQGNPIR

[3] = target: Cholecystokinin receptor (Mus musculus) (UniProt O08786+P56481); test: Ratio of IC50(gastrin) to IC50(CCK-A); format: protein assay

Structure (SMILES) | IC50 [1] [nM] | IC50 [2] [nM] | Kb (Histamine H2 receptor) [nM] | Ratio [3]
CN1C(=O)[C@H](NC(=O)Nc2cccc(COC(=O)NCCNC(=O)CC(=O)NCCCOc3cccc(CN4CCCCC4)c3)c2)N=C(c2ccccc2)c2ccccc21 | 103 | 8200 | 158 | 432
CN1C(=O)[C@H](NC(=O)Nc2cccc(COC(=O)NCCCN3CCN(C(=O)CNCCCOc4cccc(CN5CCCCC5)c4)CC3)c2)N=C(c2ccccc2)c2ccccc21 | 400 | 1650 | 316 | 183
CN1C(=O)[C@H](NC(=O)Nc2cccc(COC(=O)NCCCC(=O)NCCCOc3cccc(CN4CCCCC4)c3)c2)N=C(c2ccccc2)c2ccccc21 | 64 | 3600 | 251 | 138
CN1C(=O)[C@H](NC(=O)Nc2cccc(COC(=O)NCCC(=O)NCCCOc3cccc(CN4CCCCC4)c3)c2)N=C(c2ccccc2)c2ccccc21 | 160 | 310 | 316 | 9
CC(C)(C)OC(=O)NCCCC(=O)NCCCOc1cccc(CN2CCCCC2)c1 |  |  | 15.8 | 
CN1C(=O)[C@H](NC(=O)Nc2cccc(COC(=O)NCCN3CCN(C(=O)CNCCCOc4cccc(CN5CCCCC5)c4)CC3)c2)N=C(c2ccccc2)c2ccccc21 | 45 | 740 | 631 | 106
CN1C(=O)[C@H](NC(=O)Nc2cccc(CCOC(=O)NCCCC(=O)NCCCOc3cccc(CN4CCCCC4)c3)c2)N=C(c2ccccc2)c2ccccc21 | 180 | 5000 | 398 | 217
CC(C)(C)OC(=O)NCCCC(=O)NCCSCc1csc(N=C(N)N)n1 |  |  | 50.1 | 
Cc1cccc(NC(=O)N[C@@H]2N=C(c3cccc(OC(=O)NCCCC(=O)NCCCOc4cccc(CN5CCCCC5)c4)c3)c3ccccc3N(C)C2=O)c1 | 460 | 3800 | 501 | 17

Now from value to compound:

IC50 [1] [nM] | IC50 [2] [nM] | Kb (Histamine H2 receptor) [nM] | Ratio [3] | Structure (SMILES)
930 | 4400 | 3160 | 289 | Cc1cccc(NC(=O)N[C@@H]2N=C(c3ccccc3)c3ccccc3N(CCOC(=O)NCCCC(=O)NCCSCc3csc(N=C(N)N)n3)C2=O)c1
4000 | 4600 | 1000 | 34 | Cc1cccc(NC(=O)N[C@@H]2N=C(c3ccccc3)c3ccccc3N(CCOC(=O)NCCCC(=O)NCCCOc3cccc(CN4CCCCC4)c3)C2=O)c1
300 | 1300 | 794 | 35 | CN1C(=O)[C@H](NC(=O)Nc2cccc(CCOC(=O)NCCCC(=O)NCCSCc3csc(N=C(N)N)n3)c2)N=C(c2ccccc2)c2ccccc21
200 | 6100 | 794 | 555 | CN1C(=O)[C@H](NC(=O)Nc2cccc(COC(=O)NCC(=O)NCCCOc3cccc(CN4CCCCC4)c3)c2)N=C(c2ccccc2)c2ccccc21
94 | 4200 | 1260 | 156 | CN1C(=O)[C@H](NC(=O)Nc2cccc(CCOC(=O)NCCC(=O)NCCCOc3cccc(CN4CCCCC4)c3)c2)N=C(c2ccccc2)c2ccccc21

From ChEMBL document CHEMBL1129101 (Bioorg Med Chem Lett, 1996)
